# Test results published in publication PMC9423655, “Huntington’s disease phenotypes are improved via mTORC1 modulation by small molecule therapy” (PLoS ONE, 2022).
# System: mTORC1 pathway (pS6)
# Assay: Isoprenaline cardiac stress: pS6 immunoblot of striatum and heart
# Type: in vivo
# Conditions: N171-82Q mice under isoprenaline cardiac stress, 1 hour after oral dosing 160 mg/kg
# Procedure: Specific regions of the brain and heart were homogenized using a Next Advance Bullet Blender Storm in Lysis Buffer (Cell lysis buffer: 1% Triton X-100, 50 mM HEPES pH 7.4, 100 mM sodium chloride, 2 mM EDTA, 10 mM Beta-glycerophosphate, 10 mM Sodium pyrophosphate, and 1 protease inhibitor) at 4°C. Lysates were cleared by centrifugation at 13,200 rpm at 4°C for 10 minutes. Equal amounts of total protein from each sample were denatured and, resolved by SDS-PAGE. Membranes were imaged using the LI-COR imaging system. Proteins levels are normalized to tubulin, actin or GAPDH levels and further normalized to vehicle treated mice for each tissue.
# Fig 8 mTORC1 pathway activation following NV-5297 dosing and cardiac stress in the striatum but not heart. Representative immunoblot (left panels) of phosphorylated S6 (^S240/244pS6) and quantification of normalized level (right panels) for homogenized heart (A) and striatum (B) isolated 1 hour after oral dosing with NV-5297 (160 mg/kg) with a saline (n = 10) or isoprenaline (n = 6) implant or treated with vehicle and an isoprenaline implant (n = 6) normalized to loading control levels and further normalized to vehicle treated mice with a saline implant (n = 9). Data are presented as mean ± SEM. *P ≤ 0.05, **P ≤ 0.01, ***P ≤ 0.001 (Mixed-effects model with Sidak’s multiple comparisons test).
compound,measurement,value
"CC(C)(C[C@H](N)C(=O)O)C(F)(F)F [NV-5297, (S)-2-amino-5,5,5-trifluoro-4,4-dimethylpentanoic acid]",pS6/S6 ratio in heart,strong trend toward increased ratios
same,pS6/S6 ratio in striatum,increased pS6/S6 ratio
